Test results from patent US11697852B2, “Systems and methods for determining a treatment course of action” (The Regents of the University of Michigan, priority 2013, dated 2023).
Entries after “also recorded” stand apart in the source; their conditions may differ.

Experiments:
wild type ESR1 = target: T1, wild type ESR1 (Homo sapiens, UniProt P03372); test: ERE-luciferase reporter assay, wild type ESR1; assay type: cell-based; conditions: HEK-293T cells co-transfected with ESR1 plasmid 50 ng and ERE-luciferase; in presence of β-estradiol (FIGS. 4, 8, 9, 10)
T1 construct: expressed in transfected cells; host or cells: HEK-293T
T1 sequence (P03372 1-595): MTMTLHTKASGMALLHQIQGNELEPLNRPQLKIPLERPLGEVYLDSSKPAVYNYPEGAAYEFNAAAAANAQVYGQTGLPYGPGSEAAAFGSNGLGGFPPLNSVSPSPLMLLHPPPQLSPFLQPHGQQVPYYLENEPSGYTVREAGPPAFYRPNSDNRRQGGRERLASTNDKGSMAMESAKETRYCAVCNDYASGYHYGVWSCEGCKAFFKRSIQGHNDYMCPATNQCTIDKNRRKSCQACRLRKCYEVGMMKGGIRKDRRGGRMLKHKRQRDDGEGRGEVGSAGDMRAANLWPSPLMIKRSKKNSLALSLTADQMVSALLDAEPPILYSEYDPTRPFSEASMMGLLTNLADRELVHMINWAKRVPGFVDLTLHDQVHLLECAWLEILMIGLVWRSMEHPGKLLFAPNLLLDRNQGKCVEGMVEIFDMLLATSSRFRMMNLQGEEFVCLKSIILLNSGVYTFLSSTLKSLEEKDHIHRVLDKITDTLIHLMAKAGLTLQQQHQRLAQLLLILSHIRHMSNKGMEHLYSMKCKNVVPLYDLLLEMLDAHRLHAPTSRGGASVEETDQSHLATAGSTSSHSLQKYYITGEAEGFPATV
From the text: (§1) cDNA for the wild type ESR1 was PCR amplified from a breast cell line MCF7 with the introduction of an N-terminal FLAG tag. cDNA encoding the relevant mutations of ESR1 were generated by site-directed mutagenesis (QuikChange, Agilent) and full-length constructs were fully sequenced. All the ESR1 variants were placed in the Lentivial vector pCDH (System Biosciences) for eukaryotic expression.
Once cells attached, replaced medium with DMEM containing 10% charcoal-dextran treated FBS (HyClone) and cultured overnight. The next day, cells were transiently co-transfected with ESR1-expression plasmid at 50 ng/well and luciferase reporter constructs at 25 ng per well (SABiosciences) using the FuGene 6 reagent (Promega). The ER-responsive luciferase plasmid encoding the firefly luciferase reporter gene is driven by a minimal CMV promoter and tandem repeats of the estrogen transcriptional response element (ERE). A second plasmid constitutively expressing Renilla luciferase is served as an internal control for normalizing transfection efficiencies (Cignal ERE Reporter, SABiosciences). After transfection for 18 hrs, cells were serum-starved for a few hours before treatment with 13-estradiol or anti-estrogen drugs. Cells were harvested 18 hr post-treatment, and luciferase activity was measured using the Dual-Luciferase Reporter Assay System (Promega). […]

[1] = system: ESR1 mutations p.Leu536Gln, p.Tyr537Ser, p.Asp538Gly, p.Tyr537Cys, p.Tyr537Asn; test: ERE-luciferase reporter assay, ESR1 LBD mutants; assay type: cell-based, human; conditions: for inhibition of the 5 LBD mutations of ESR1 (reporter activity): ERE-luciferase, increasing doses with 5 nM β-estradiol for 24 hrs (FIG. 4)
Procedure: as §1
For cell transfection experiments, HEK-293T cells were plated at a density of 1−2×10^5 per well (24-well plates) in phenol red-free Dulbecco's modified Eagle's medium (DMEM) containing 10% fetal bovine serum (FBS) and antibiotics. Once cells attached, replaced medium with DMEM containing 10% charcoal-dextran treated FBS (HyClone) and cultured overnight. The next day, cells were transiently co-transfected with ESR1-expression plasmid at 50 ng/well and luciferase reporter constructs at 25 ng per well (SABiosciences) using the FuGene 6 reagent (Promega). The ER-responsive luciferase plasmid encoding the firefly luciferase reporter gene is driven by a minimal CMV promoter and tandem repeats of the estrogen transcriptional response element (ERE). A second plasmid constitutively expressing Renilla luciferase is served as an internal control for normalizing transfection efficiencies (Cignal ERE Reporter, SABiosciences). After transfection for 18 hrs, cells were serum-starved for a few hours before treatment with 13-estradiol or anti-estrogen drugs. Cells were harvested 18 hr post-treatment, and luciferase activity was measured using the Dual-Luciferase Reporter Assay System (Promega). IC50 values were computed using the GraphPad Prizm application to fit a four parameter doseresponse curve.
It was next assessed whether tumor types other than ER positive metastatic hormone-resistant breast cancer also acquire ligand binding mutations in ESR1. The Cancer Genome Atlas Project (TCGA), which has generated whole exome data on 27 tumor types across at least 4000 individual samples was utilized. […] Steroid hormone deprived cells were then exposed to β-estradiol for 24 hours and ER reporter levels assessed.

## (Z)-4-Hydroxytamoxifen
Wild type ESR1
  inhibition of wild-type ER reporter (transactivation) activity: inhibited in a dose-dependent fashion

## CC/C(=C(\c1ccccc1)c1ccc(OCCN(C)C)cc1)c1ccccc1 [tamoxifen]
[1]
  inhibition of the 5 LBD mutations of ESR1 (reporter activity): in a dose-dependent fashion; also recorded: continue to be responsive

## C[C@]12CC[C@@H]3c4ccc(O)cc4C[C@@H](CCCCCCCCC[S+]([O-])CCCC(F)(F)C(F)(F)F)[C@H]3[C@@H]1CC[C@@H]2O (stereo partly shown) [fulvestrant, Fulvestrant]
[1]; ERE-luciferase dose response in competition with 1 nM estradiol (FIGS. 8 and 9)
  maximal inhibition for all the mutants tested: greater maximal inhibition than 4-hydroxytamoxifen
[1]
  inhibition of the 5 LBD mutations of ESR1 (reporter activity): in a dose-dependent fashion; also recorded: continue to be responsive
